The values below are quoted from earlier work in patent US20090238867A1, “Nanoparticulate Anidulafungin Compositions and Methods for Making the Same” (priority 2007, published 2009).

Read-outs that look alike come from different tables or passages of the source. Numbered stars: 1 amine (or outer) side, 2 acyl side, 3 side chain; on linkers, the order of the positions; unused ones are H or OH. Bridge positions count the residues as written; N and C are the ends. Square brackets hold non-standard residues; d marks the D form. Peptide text beside a SMILES is read from it. * marks the point of attachment. ξ: configuration not given here. pTerphenylCO(4''-OnC5H11) = CCCCCOc1ccc(-c2ccc(-c3ccc(C(=O)*)cc3)cc2)cc1; Orn(4R-OH,5R-OH) = O=C([C@H](C[C@@H](O)[C@@H](O)N[*:3])N[*:1])[*:2]; hTyr(3S-OH,4S-OH) = N[C@H](C(=O)O)[C@H](O)[C@@H](O)c1ccc(O)cc1; Pro(3S-OH,4S-Me) = C[C@H]1CN[C@H](C(=O)O)[C@H]1O; Hyp = O=C(O)[C@@H]1C[C@@H](O)CN1; ξThr(3R) = C[C@@H](O)C(N)C(=O)O

Data set [1] relates to fluconazole-resistant C. albicans. As to conditions: immunosuppressed rabbits.
For a further data set, the system named is glucan synthase. As to conditions: enzyme present in fungal, not mammalian cells.
In data set [2] the test system is Candida albicans.
Data set [3] deals with Candida albicans. As to conditions: parenteral; immunocompetent and immunosuppressed rabbits, disseminated infection.
Data set [4] deals with Candida albicans. As to conditions: parenteral; immunocompetent and immunosuppressed mice, disseminated infection.
The subject of data set [5] is cytochrome P450 (CYP450) isoenzymes.
The conditions of data set [6]: IV.

`CCCCCOc1ccc(-c2ccc(-c3ccc(C(=O)N[C@H]4C[C@@H](O)[C@@H](O)NC(=O)[C@@H]5[C@@H](O)[C@@H](C)CN5C(=O)[C@H]([C@@H](C)O)NC(=O)[C@H]([C@H](O)[C@@H](O)c5ccc(O)cc5)NC(=O)[C@@H]5C[C@@H](O)CN5C(=O)C([C@@H](C)O)NC4=O)cc3)cc2)cc1` (stereo partly drawn) [anidulafungin, 1-[(4R,5R)-4,5-Dihydroxy-N^2-[[4″-(pentyloxy)[1,1′:4′,1″-terphenyl]-4-yl]carbonyl]-L-ornithine]echinocandin B] ({pTerphenylCO(4''-OnC5H11)}-[Orn(4R-OH,5R-OH)][ξThr(3R)][Hyp][hTyr(3S-OH,4S-OH)]T[Pro(3S-OH,4S-Me)]; lactam 1-C): in data set [1], the mycological burden entry is reported as “reduces the mycological burden”. The “inhibition of glucan synthase” value in the data set on glucan synthase is “inhibits”. Further, under “ethanol”, the solubility in ethanol entry is reported as “slightly soluble”. Where the note is “water”, the solubility in water result is reported as “practically insoluble”. Besides, in the data set with Candida (patients with candidemia and/or other forms of invasive candidiasis), the clinical effectiveness entry is recorded as “effectiveness”. In addition, the clinical effectiveness result in the data set on Candida (patients with esophageal candidiasis) is on record as “effectiveness”. Also, the in vitro activity entry with Candida albicans [2] was “active”. Moreover, in the data set with Candida albicans [3], the “efficacy as prolonged survival and reduction in mycological burden” value is listed as “effective”. Also, the “bound to human plasma proteins” value with human plasma proteins is on record as > 99%. For the same compound, the in vitro activity entry in the data set with C. tropicalis is listed as “active”. In the data set on Candida albicans [4], the “efficacy as prolonged survival and reduction in mycological burden” value is listed as “effective”. In addition, the “substrate, inducer or inhibitor of CYP450 isoenzymes” value in data set [5] is reported as “not a clinically relevant substrate, inducer, or inhibitor”. Besides, the in vitro activity result in the data set with C. parapsilosis was “active”. In addition, the in vitro activity result in the data set on C. glabrata is reported as “active”. Also, in data set [6], the clearance entry is given as “about 1 L/h”; the distribution half-life is 0.5 to 1 h; the “intersubject variability of systemic exposure (coefficient of variation)” value is on record as < 25%; the “systemic exposures, dose dependence” value was “dose proportional”. Further, in [6], the terminal elimination half-life was 40 to 50 h and the volume of distribution was 30 to 50 L. Moreover, the “estimated plasma accumulation factor at steady state” value in data set [6] (after loading dose twice the daily maintenance dose) is “approximately 2”.
